Drawing on US20190292155A1, “THERAPEUTIC INHIBITORY COMPOUNDS” (LifeSci Pharmaceuticals, Inc., priority 2016, published 2019), this text covers IC50 and EC50 for 27 compounds.

The target in test [1] is T1, human complement factor D (Homo sapiens, UniProt P00746).
T1 construct: purchased R&D Systems 1824-SE
Kind of test: In vitro enzyme inhibition of human complement factor D (Z-Lys-SBzl/DTNB, A405). It counts as biochemical. The essentials: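 Buffer 50 mM Tris/HCl pH 7.5, 1 M NaCl, 0.5% final DMSO; compounds pre-incubated with enzyme 5 min at room temperature, then Z-Lys-SBzl with DTNB added (each diluted to 200 μM before addition).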

Test [2] relates to alternative pathway (AP) hemolytic activity. Kind of test: AP hemolysis inhibition assay. It counts as cell-based. The following applies: Normal Human Serum, chicken or rabbit erythrocytes. On the procedure: The ability of the compounds disclosed herein to inhibit alternative pathway (AP) hemolytic activity was determined. […] In 100 μL reaction system, 1300 to […] final concentration of Normal Human Serum (CompTech) was incubated with compound for 15 min at 37° C. Then 2×10^6 cells/well of chicken or rabbit erythrocytes in assay buffer were added and incubated for an additional 60 min at 37° C. Positive control (100% lysis) consists of serum and RBC, and negative control (0% lysis) consists of assay buffer and RBC only. Samples were centrifuged at 2000 g for 5 min, and supernatants collected. […] Percentage lysis in each sample is calculated relative to positive control (100% lysis).

[3] abbreviates: biochemical assay, substrate Z-Lys-SBzl, read-out: CFD IC50.

Molecules are shown by their SMILES. Like-named read-outs stand apart in the source and are kept apart here. A value given as a limit tells only on which side of the number the result lay.

T1 sequence (P00746 26-253): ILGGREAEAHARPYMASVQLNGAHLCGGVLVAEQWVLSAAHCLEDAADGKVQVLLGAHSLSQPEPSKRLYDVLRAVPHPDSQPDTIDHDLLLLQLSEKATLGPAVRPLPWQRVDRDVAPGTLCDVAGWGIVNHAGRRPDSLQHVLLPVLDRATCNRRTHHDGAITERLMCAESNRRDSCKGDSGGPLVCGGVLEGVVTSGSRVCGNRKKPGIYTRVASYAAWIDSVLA

Usually IC50 stands for the concentration that inhibits the measured activity by half. By EC50 is commonly meant the midpoint of the concentration-response curve. A low value points to an effect from little substance. Consider `NC(=O)n1nc(CC(=O)N(CC(=O)Nc2cccc(Cl)n2)C2CCC2)c2ccccc21` [Example 20, 3-(2-((2-((6-chloropyridin-2-yl)amino)-2-oxoethyl)(cyclobutyl)amino)-2-oxoethyl)-1H-indazole-1-carboxamide], for which, in test [1] (setting [3]), the IC50 is 0.1 to 1 µM. The EC50 in test [2] was in the range of 0.1 to 1 µM.

As for `NC(=O)c1nn(CC(=O)N(CC(=O)NCc2cccc(Cl)c2F)C2CC2)c2cnccc12` [Example 40, 1-(2-((2-((3-chloro-2-fluorobenzyl)amino)-2-oxoethyl)(cyclopropyl)amino)-2-oxoethyl)-1H-pyrazolo[3,4-c]pyridine-3-carboxamide], the IC50 in test [1] (setting [3]) was under 0.1 µM. The same compound displayed an EC50 in test [2] of 0.1 to 1 µM.

In the case of `NC(=O)c1nn(CC(=O)N(CC(=O)Nc2cccc(Cl)n2)C2CC2)c2ccccc12` [Example 16, 1-(2-((2-((6-chloropyridin-2-yl)amino)-2-oxoethyl)(cyclopropyl)amino)-2-oxoethyl)-1H-indazole-3-carboxamide], in test [1], the IC50 lay within 0.1 to 1 µM. The same compound yielded an EC50 in test [2] of 0.1 to 1 µM.

Regarding `CC(C)N(CC(=O)Nc1cccc(Cl)n1)C(=O)Cn1nc(C(N)=O)c2ccccc21` [Example 12, 1-(2-((2-((6-chloropyridin-2-yl)amino)-2-oxoethyl)(isopropyl)amino)-2-oxoethyl)-1H-indazole-3-carboxamide], the IC50 in test [1] lay within 0.1 to 1 µM. Besides, the EC50 in test [2] fell in the range of 0.1 to 1 µM.

Consider `NC(=O)c1nc(NC(=O)N(CC(=O)NCc2cccc(Cl)c2F)C2CC2)c2ccccn12` [Example 53, 1-(3-(2-((3-chloro-2-fluorobenzyl)amino)-2-oxoethyl)-3-cyclopropylureido)imidazo[1,5-a]pyridine-3-carboxamide], for which the IC50 in test [1] (setting [3]) fell in the range of 0.1 to 1 µM. The same compound returned an EC50 in test [2] of 0.1 to 1 µM.

On to `NC(=O)n1nc(CC(=O)N(CC(=O)NCc2cccc(Cl)c2F)C2CC2)c2ccccc21` [Example 8, 3-(2-((2-((3-chloro-2-fluorobenzyl)amino)-2-oxoethyl)(cyclopropyl)amino)-2-oxoethyl)-1H-indazole-1-carboxamide], for which the IC50 in test [1] (setting [3]) is under 0.1 µM. The EC50 in test [2] was 0.1 to 1 µM.

For the compound `Cc1ccc(CNC(=O)CN(C(=O)Cn2nc(C(N)=O)c3ccccc32)C2CC2)cc1Cl` [Example 113, 1-(2-((2-((3-chloro-4-methylbenzyl)amino)-2-oxoethyl)(cyclopropyl)amino)-2-oxoethyl)-1H-indazole-3-carboxamide], in test [1] (setting [3]), the IC50 lay within 1 to 10 µM.

For the compound `CC(=O)c1nn(CC(=O)N(CC(=O)NCc2cccc(Cl)c2F)C2CC2)c2ccccc12` [Example 47, 2-(3-acetyl-1H-indazol-1-yl)-N-(2-((3-chloro-2-fluorobenzyl)amino)-2-oxoethyl)-N-cyclopropylacetamide], the IC50 in test [1] (setting [3]) was under 0.1 µM. Further, the EC50 in test [2] was 0.1 to 1 µM.

`C[C@@H](C(=O)NCc1cccc(Cl)c1F)N(C(=O)Cn1nc(C(N)=O)c2ccccc21)C1CC1` [Example 39, (S)-1-(2-((1-((3-chloro-2-fluorobenzyl)amino)-1-oxopropan-2-yl)(cyclopropyl)amino)-2-oxoethyl)-1H-indazole-3-carboxamide]: in test [1] (setting [3]), the IC50 was over 10 µM.

With `CCOC(=O)CC(N(CC(=O)NCc1cccc(Cl)c1F)C(=O)Cn1nc(C(N)=O)c2ccccc21)C(F)(F)F` (centres unmarked) [Example 77, ethyl 3-(2-(3-carbamoyl-1H-indazol-1-yl)-N-(2-((3-chloro-2-fluorobenzyl)amino)-2-oxoethyl)acetamido)-4,4,4-trifluorobutanoate], the IC50 in test [1] (setting [3]) was 1 to 10 µM.

Turning to `NC(=O)c1ccc2c(C(N)=O)nn(CC(=O)N(CC(=O)NCc3cccc(Cl)c3F)C3CC3)c2c1` [Example 100, 1-(2-((2-((3-chloro-2-fluorobenzyl)amino)-2-oxoethyl)(cyclopropyl)amino)-2-oxoethyl)-1H-indazole-3,6-dicarboxamide], in test [1], the IC50 is under 0.1 µM.

Regarding `NC(=O)c1nn(CC(=O)N(CC(=O)NCc2cccc(Cl)c2C2CC2)C2CC2)c2ccccc12` [Example 131, 1-(2-((2-((3-chloro-2-cyclopropylbenzyl)amino)-2-oxoethyl)(cyclopropyl)amino)-2-oxoethyl)-1H-indazole-3-carboxamide], the IC50 in test [1] (setting [3]) is over 10 µM.

Take `NC(=O)c1ccc2c(c1)c(C(N)=O)nn2CC(=O)N(CC(=O)NCc1cccc(Cl)c1F)C1CC1` [Example 93, 1-(2-((2-((3-chloro-2-fluorobenzyl)amino)-2-oxoethyl)(cyclopropyl)amino)-2-oxoethyl)-1H-indazole-3,5-dicarboxamide]: the IC50 in test [1] (setting [3]) fell in the range of 0.1 to 1 µM.

Consider `NC(=O)c1cc(C(F)(F)F)n(CC(=O)N(CC(=O)NCc2cccc(Cl)c2F)C2CC2)n1` [Example 43, 1-(2-((2-((3-chloro-2-fluorobenzyl)amino)-2-oxoethyl)(cyclopropyl)amino)-2-oxoethyl)-5-(trifluoromethyl)-1H-pyrazole-3-carboxamide], for which, in test [1] (setting [3]), the IC50 was over 10 µM.

`NC(=O)c1nn(CC(=O)N(CC(=O)Nc2cccc(Cl)c2F)C2CC2)c2ccccc12` [Example 7, 1-(2-((2-((3-chloro-2-fluorophenyl)amino)-2-oxoethyl)(cyclopropyl)amino)-2-oxoethyl)-1H-indazole-3-carboxamide]: the IC50 in test [1] (setting [3]) fell in the range of 0.1 to 1 µM.

For `NC(=O)c1nn(CC(=O)N(CC(=O)NCc2cccc(Cl)c2F)C2CC2)c2ccc(F)cc12` [Example 78, 1-(2-((2-((3-chloro-2-fluorobenzyl)amino)-2-oxoethyl)(cyclopropyl)amino)-2-oxoethyl)-5-fluoro-1H-indazole-3-carboxamide], in test [1], the IC50 is 0.1 to 1 µM.

`CC(C)N(CC(=O)NCc1cccc(Cl)c1F)C(=O)Nc1cn(C(N)=O)c2ccccc12` [Example 50, 3-(3-(2-((3-chloro-2-fluorobenzyl)amino)-2-oxoethyl)-3-isopropylureido)-1H-indole-1-carboxamide]: the IC50 in test [1] (setting [3]) fell in the range of 0.1 to 1 µM. This compound registered an EC50 in test [2] of 1 to 10 µM.

Consider `CC1(C)CC(O)CC(NC(=O)CN(C(=O)Cn2nc(C(N)=O)c3ccccc32)C2CC2)C1` (centres unmarked) [Example 9, 1-(2-(cyclopropyl(2-((5-hydroxy-3,3-dimethylcyclohexyl)amino)-2-oxoethyl)amino)-2-oxoethyl)-1H-indazole-3-carboxamide], for which, in test [1] (setting [3]), the IC50 lay in the range of 1 to 10 µM.

In the case of `COC(=O)C(C)N(CC(=O)NCc1cccc(Cl)c1F)C(=O)Cn1nc(C(N)=O)c2ccccc21` (centres unmarked) [Example 59, methyl 2-(2-(3-carbamoyl-1H-indazol-1-yl)-N-(2-((3-chloro-2-fluorobenzyl)amino)-2-oxoethyl)acetamido)propanoate], the IC50 in test [1] (setting [3]) fell in the range of 1 to 10 µM.

Turning to `NCc1cc(Cl)c(F)c(CNC(=O)CN(C(=O)Cn2nc(C(N)=O)c3ccccc32)C2CC2)c1` [Example 101, 1-(2-((2-((5-(aminomethyl)-3-chloro-2-fluorobenzyl)amino)-2-oxoethyl)(cyclopropyl)amino)-2-oxoethyl)-1H-indazole-3-carboxamide], the IC50 in test [1] (setting [3]) lay within 1 to 10 µM.

Take `NC(=O)c1nn(CC(=O)N(CC(=O)NCc2cccc(C3CC3)c2F)C2CC2)c2ccccc12` [Example 127, 1-(2-(cyclopropyl(2-((3-cyclopropyl-2-fluorobenzyl)amino)-2-oxoethyl)amino)-2-oxoethyl)-1H-indazole-3-carboxamide]: the IC50 in test [1] (setting [3]) was 1 to 10 µM.

Take `N#Cc1cccc(CNC(=O)CN(C(=O)Cn2nc(C(N)=O)c3ccccc32)C2CC2)c1F` [Example 123, 1-(2-((2-((3-cyano-2-fluorobenzyl)amino)-2-oxoethyl)(cyclopropyl)amino)-2-oxoethyl)-1H-indazole-3-carboxamide]: the IC50 in test [1] (setting [3]) was in the range of 1 to 10 µM.

As to `NC(=O)c1nn(CC(=O)N(CC(=O)NCc2cccc(Br)c2F)C2CC2)c2ccccc12` [Example 120, 1-(2-((2-((3-bromo-2-fluorobenzyl)amino)-2-oxoethyl)(cyclopropyl)amino)-2-oxoethyl)-1H-indazole-3-carboxamide], the IC50 in test [1] (setting [3]) was under 0.1 µM.

`C[C@@H](C(=O)Nc1cccc(Cl)c1F)N(C)C(=O)Cn1nc(C(N)=O)c2ccccc21` [Example 2, (S)-1-(2-((1-((3-chloro-2-fluorophenyl)amino)-1-oxopropan-2-yl)(methyl)amino)-2-oxoethyl)-1H-indazole-3-carboxamide]: the IC50 in test [1] (setting [3]) was 1 to 10 µM.

`CC(CCO)N(CC(=O)NCc1cccc(Cl)c1F)C(=O)Cn1nc(C(N)=O)c2ccccc21` (centres unmarked) [Example 57, 1-(2-((2-((3-chloro-2-fluorobenzyl)amino)-2-oxoethyl)(4-hydroxybutan-2-yl)amino)-2-oxoethyl)-1H-indazole-3-carboxamide] had an IC50 in test [1] of 0.1 to 1 µM.

With `CCC(COC)N(CC(=O)NCc1cccc(Cl)c1F)C(=O)Cn1nc(C(N)=O)c2ccccc21` (centres unmarked) [Example 61, 1-(2-((2-((3-chloro-2-fluorobenzyl)amino)-2-oxoethyl)(1-methoxybutan-2-yl)amino)-2-oxoethyl)-1H-indazole-3-carboxamide], in test [1] (setting [3]), the IC50 was 1 to 10 µM.

In the case of `NC(=O)c1nn(CC(=O)N(CC(=O)NCc2cccc(Cl)c2F)Cc2ccsc2)c2ccccc12` [Example 27, 1-(2-((2-((3-chloro-2-fluorobenzyl)amino)-2-oxoethyl)(thiophen-3-ylmethyl)amino)-2-oxoethyl)-1H-indazole-3-carboxamide], the IC50 in test [1] (setting [3]) was in the range of 1 to 10 µM.
